# Literature values in patent US6440956B1, “Bicyclic polyaminoacid metal complexes, their process of preparation and their application in medical imaging” (Guerbet, priority 1999, dated 2002).
# Conditions: ratio to commercial gadolinium chelates; from Inorganic Chemistry 36(14) 2992-3000 (1997) and Magn. Reson. Chem. 36, S200-208 (1998)
structure (smiles),measurement,value
O=C([O-])CN1CCN(CC(=O)[O-])Cc2cccc(n2)CN(CC(=O)[O-])CC1.[Gd+3] [PCTA],longitudinal relaxation r1 relative to that of the gadolinium chelates used as contrast agents in magnetic resonance imaging in man,~2 times
